Values of other authors in US20060147533A1, “Antimicrobial biomaterial for blood bags” (priority 2004, published 2006).

Conditions: humans; recoveries reported following ingestion of higher doses

In the case of `O=[N+]([O-])[O-].[Ag+]` [silver nitrate], the estimated fatal dose is given as 10 grams.
